Reference: patent EP2021356B1, “HIV VACCINE” (priority 2006, dated 2007)
Ends that are not written are not given here.

target: HLA-A*0201 molecule (Homo sapiens, UniProt P04439, D140Y/D185E/D98H/E176V/E277Q/G131W/G231S/I119V/I121R/I166T/I218V/L300P/L318F/N151K/N90K/P208A/P217A/Q86G/Q94H/R138H/R169H/T345S); test: In vitro binding to HLA-A*0201; conditions: not given

Compound	IC50 [nM]
CC[C@H](C)[C@H](NC(=O)[C@H](CC(C)C)NC(=O)[C@H](CCC(N)=O)NC(=O)[C@H](CC(=O)O)NC(=O)[C@H](C)NC(=O)[C@H](CC(C)C)NC(=O)CN)C(=O)N[C@@H](Cc1c[nH]cn1)C(=O)N[C@@H](CC(C)C)C(=O)O [Vif 101 (9L)]	219
DLADQLIHL [Vif 101 (1 D)]	1950
ELADQLIHL [Vif101(1E)^var]	6590
GLADQLIHI [Vif 101 (9 I)]	30
HLADQLIHQ [G1HL9Q]	1160
SLADQLIHL [Vif 101 (1 S)]	43

test system: peptide pulsed HHD-EL4S3-Rob target cells; test: not given; conditions: Corbet et al., 2003; cited from earlier work

Compound	immunogenicity of anchor-optimized epitope with cross-reaction to the natural epitope
ALVEMGHHV [Vpu66(9V)^mod]	very strong immune response
FLGKIWPV [Gag433(9V)^mod]	very strong immunogens
